Measured values as given in patent publication US20110045101A1, “FUNGICIDAL SUBSTITUTED AZOLES” (E.I. Du Pont De Nemours and Company, priority 2009, published 2011).
Marks after values point to notes of the source that are not given here.

Experiments:
Assay type in all cases: in vivo
Conditions in all cases: 100 = 100% disease control
Septoria nodorum = test: Test F: wheat glume blotch on wheat seedlings, sprayed the day before inoculation, visual disease rating
How it was run: (§1)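 Plants received a run-off spray at 200 ppm (equivalent to 500 g/ha) or, for starred values, 40 ppm. Formulation used acetone at 3% of volume in a 50/50 acetone/water mix carrying 250 ppm Trem® 014.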

Septoria tritici = test: Test G: wheat leaf blotch on wheat seedlings, sprayed the day before inoculation, visual disease rating
How it was run: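 Seedlings receive a protective spray of test suspension in acetone/water carrying 250 ppm surfactant, mostly at 200 ppm and at 40 ppm where marked. They are inoculated the next day, kept saturated at 24° C for 48 h, then held at 20° C for 19 days before visual scoring.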

Alternaria solani = test: Test D: tomato early blight, sprayed the day before inoculation, visual disease rating
How it was run: as §1

[1] = tested on: Erysiphe graminis f. sp. tritici; test: Test J: wheat powdery mildew on wheat seedlings, sprayed the day before inoculation, visual disease rating
How it was run: as §1

Botrytis cinerea = test: Test C: tomato Botrytis on tomato seedlings, sprayed the day before inoculation, visual disease rating
How it was run: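 Rate: 200 ppm sprayed to run-off, corresponding to 500 g/ha; flagged values used 40 ppm. Vehicle was aqueous acetone (1:1) plus 250 ppm surfactant, compounds predissolved in acetone at 3% of volume. Plants were tomato seedlings.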

[2] = tested on: Puccinia recondita f. sp. tritici; test: Test I: wheat leaf rust on wheat seedlings, sprayed the day before inoculation, visual disease rating
How it was run: as §1

[3] = tested on: Puccinia recondita f. sp. tritici; test: Test H: wheat leaf rust, test suspension sprayed after inoculation of wheat seedlings, visual disease rating
How it was run: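 Wheat seedlings inoculated with P. recondita spores, held 24 h saturated at 20 °C, then 2 days in growth chamber at 20 °C; compound suspension (acetone/water with Trem 014) sprayed to run-off afterwards. Rated visually; 200 ppm (≈500 g/ha) unless marked *, which denotes 40 ppm.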

[4] = 200 ppm, 0 = no control relative to controls
[5] = 40 ppm (marked *), 0 = no control

Row | SMILES | Test F disease control rating (Septoria nodorum; [4]) | Test G disease control rating (Septoria tritici; [4]) | Test D disease control rating (Alternaria solani; [4]) | Test J disease control rating [1, 4] | Test C disease control rating (Botrytis cinerea; [4]) | Test I disease control rating [2, 4] | Test H disease control rating [3, 4] | Test F disease control rating (Septoria nodorum; [5]) | Test G disease control rating (Septoria tritici; [5]) | Test D disease control rating (Alternaria solani; [5]) | Test J disease control rating [1, 5] | Test C disease control rating (Botrytis cinerea; [5]) | Test I disease control rating [2, 5] | Test H disease control rating [3, 5]
1 | Fc1cccc(-n2c(Br)nc(Cl)c2-c2c(F)ccc(F)c2F)c1 [compound 368] | 0% | 92% | 100% | 96% | 99% | 99% | 0% | – | – | – | – | – | – | –
2 | Cc1nc(Cl)c(-c2c(F)ccc(F)c2F)n1-c1cccc(F)c1 [compound 369] | 98% | 92% | 100% | 99% | 99% | 99% | 74% | – | – | – | – | – | – | –
3 | Cc1nc(Cl)c(-c2c(F)cc(F)cc2F)n1-c1cccc(F)c1 [compound 370] | 87% | 89% | 100% | 100% | 99% | 100% | 100% | – | – | – | – | – | – | –
4 | Cn1c(-c2c(Br)nc(Br)n2-c2ccc(Cl)cc2)nc(Br)c1Br [compound 372] | 0% | 91% | 0% | 0% | 99% | 74% | 0% | – | – | – | – | – | – | –
5 | COc1cc(F)c(-n2c(Br)nc(Cl)c2-c2ccc(Cl)cc2)c(F)c1 [compound 373] | – | – | – | – | – | – | – | 60* % | 92* % | 98* % | 99* % | 99* % | 95* % | 0* %
6 | Fc1ccc(F)c(-c2c(Br)nc(Br)n2-c2ccc(Cl)cc2)c1Cl [compound 374] | 0% | 94% | 99% | 98% | 99% | 90% | 0% | – | – | – | – | – | – | –
7 | Cc1cccc(-c2c(C)ncn2-c2ccc(Cl)c(F)c2)n1 [compound 375] | 0% | 92% | 26% | 62% | 99% | 68% | 32% | – | – | – | – | – | – | –
8 | Cc1ncn(-c2ccc(Cl)c(F)c2)c1-c1scnc1Cl [compound 376] | 0% | 78% | 0% | 67% | 90% | 54% | 0% | – | – | – | – | – | – | –
9 | Cc1ncn(-c2ccc(Cl)c(F)c2)c1-c1sc(Cl)nc1Cl [compound 377] | 0% | 3% | 0% | 33% | 0% | 27% | 0% | – | – | – | – | – | – | –
10 | Cc1cccc(-c2c(C)nc(Cl)n2-c2ccc(Cl)c(F)c2)n1 [compound 378] | 0% | 93% | 0% | 75% | 100% | 74% | 0% | – | – | – | – | – | – | –
11 | Cc1cccc(-c2c(CCl)nc(Cl)n2-c2ccc(Cl)c(F)c2)n1 [compound 379] | 0% | 86% | 0% | 0% | 99% | 27% | 0% | – | – | – | – | – | – | –
12 | Cc1nc(Cl)n(-c2ccc(Cl)c(F)c2)c1-c1scnc1Cl [compound 380] | 0% | 91% | 91% | 99% | 100% | 99% | 0% | – | – | – | – | – | – | –
13 | Cc1nc(Cl)n(-c2ccc(Cl)c(F)c2)c1-c1sc(Cl)nc1Cl [compound 381] | 0% | 78% | 0% | 0% | 94% | 0% | 0% | – | – | – | – | – | – | –
14 | Fc1cc(-n2c(Br)nc(Br)c2-c2c(F)ccc(F)c2F)ccc1Cl [compound 382] | – | – | – | – | – | – | – | 0* % | 96* % | 99* % | 97* % | 100* % | 95* % | 0* %
15 | Fc1ccc(F)c(-c2c(Br)nc(Br)n2-c2ccc(Cl)cc2)c1F [compound 383] | – | – | – | – | – | – | – | 35* % | 96* % | 99* % | 98* % | 100* % | 91* % | 0* %
16 | Fc1ccc(-n2c(Br)nc(Br)c2-c2c(F)ccc(F)c2F)cc1 [compound 384] | – | – | – | – | – | – | – | 0* % | 95* % | 99* % | 95* % | 100* % | 67* % | 0* %
17 | Fc1ccc(F)c(-c2c(Br)nc(Cl)n2-c2ccc(Cl)cc2)c1Cl [compound 385] | – | – | – | – | – | – | – | 0* % | 95* % | 99* % | 99* % | 99* % | 95* % | 0* %
18 | N#Cc1ccc(-n2cnc(Cl)c2-c2c(F)ccc(C#N)c2F)cc1 [compound 387] | 0% | 0% | 0% | 0% | 0% | 0% | 0% | – | – | – | – | – | – | –
19 | COc1ccc(F)c(-c2c(Cl)nc(Cl)n2-c2ccc(F)cc2)c1F [compound 390] | 99% | 95% | 100% | 100% | 100% | 100% | 18% | – | – | – | – | – | – | –
20 | COc1ccc(F)c(-c2c(Cl)nc(Cl)n2-c2cccc(C)c2)c1F [compound 391] | 0% | 94% | 99% | 100% | 100% | 99% | 0% | – | – | – | – | – | – | –
21 | COc1ccc(F)c(-c2c(Cl)nc(Cl)n2-c2ccc(Cl)c(F)c2)c1F [compound 392] | 100% | 97% | 100% | 100% | 100% | 99% | 60% | – | – | – | – | – | – | –
